From article PMC9724248, “Anticancer peptide Q7 suppresses the growth and migration of human endometrial cancer by inhibiting DHCR24 expression and modulating the AKT-mediated pathway” (International Journal of Medical Sciences, 2022)
Like-named read-outs stand apart in the source and are kept apart here. Where no end group is shown, it is not given here.

Legend:
Type in all cases: cell-based, human
HEC-1-A cells [1] = experiment: MTT cytotoxicity of anticancer peptides
Protocol: (§1) Cells were seeded into 96-well tissue culture plates at a concentration of 1×10^4 cells/200 μl/well overnight. Subsequently, the cells were treated with serial dilutions of ACP, scrambled ACP, or non-ACP. After 48 h of incubation, the cell viability of each line was determined by the MTT colorimetric assay (Sigma-Aldrich).

HUVEC = details: MTT, 48 h, mean ± SD, ND: no detection, read-out: IC50 (50% decrease of cell viability)
Protocol: as §1

HEC-1-A cells [2] = experiment: Wound healing assay (Culture-Insert); details: peptides 50 µM, 24 h
Protocol: HEC-1-A cells (3×10^4 cells/70 μl/well) were seeded into a Culture-Insert 2 well (Ibidi, Munich, Germany) overnight. Afterward, inserts were removed, peptides (50 µM) were added, the status of the scratch wounds was monitored using an inverted microscope at 0 h (removal of Culture-Insert) and 24 h, and representative images were collected. The results were presented as the percentage of wound closure, calculated as follows: [wound area (initial) - wound area (final)]/wound area (initial)×100. The wound area was measured using software image J.

AKT = experiment: Western blot of AKT phosphorylation; details: HEC-1-A, 100 µM, 6 h (Fig. S3)
Protocol: The cells were lysed on ice with 100 μl of lysis buffer and centrifuged at 13,000 g for 20 min at 4 °C. The lysate proteins were quantified using BCA Protein Assay Reagent. Each sample load comprised 30 μg total proteins per lane and was resolved by 12.5% SDS-PAGE. After being transferred onto the PVDF membranes, the membranes were blocked with 5% skimmed dried milk for 1 h and incubated overnight with primary antibodies, including anti-DHCR24, anti-AKT, anti-pAKT, anti-p-GSK3beta, anti-mTOR, and anti-p-mTOR (dilution: 1:1,000; Thermo); anti-S6K1, anti-p-p53, anti-cyclin D1, and anti-cleaved caspase 3 (dilution: 1:500; Thermo); anti-pS6K1 (dilution: 1:2,000; Thermo); anti-p53 and anti-GSK3beta (dilution: 1:200; Thermo); anti-BAX (dilution: 1:2,000; Thermo); anti-p-FoxO3A, anti-HIF-1α, and anti-actin (dilution: 1:1,500; GeneTex Inc., Irvine, CA, USA). The membrane was then washed and incubated with anti-rabbit IgG secondary antibodies followed by horseradish peroxidase. The protein expressions were visualized with an ECL kit (Pierce, Rockford, IL, USA) according to the manufacturer's instructions. Actin acted as the loading control.
Figure S3. Q7 repressed the phosphorylation of AKT-kinase.
After 6 h incubation of Q7 (100 µM), sQ7 and nACP, the AKT protein expression of
HEC-1-A cells was detected by using western blotting.
(1 picture or pasted object on this page, not shown here)

[3] = HEC-1-A, MTT, 48 h, mean ± SD, read-out: IC50 (50% decrease of cell viability)

For `CSCC[C@H](N)C(=O)N[C@@H](CCC(=O)O)C(=O)N[C@@H](Cc1ccccc1)C(=O)N[C@H](C(=O)N[C@@H](C)C(=O)N[C@@H](CCCCN)C(=O)N[C@@H](CC(C)C)C(=O)N[C@@H](Cc1ccccc1)C(=O)N[C@@H](CCCCN)C(=O)N[C@@H](Cc1ccccc1)C(=O)N[C@@H](Cc1ccccc1)C(=O)N[C@@H](CCCCN)C(=O)N[C@@H](CC(=O)O)C(=O)N[C@@H](CC(C)C)C(=O)N[C@@H](CC(C)C)C(=O)NCC(=O)N[C@@H](CCCCN)C(=O)N[C@@H](Cc1ccccc1)C(=O)N[C@@H](CC(C)C)C(=O)NCC(=O)N[C@@H](CC(N)=O)C(=O)N[C@@H](CC(N)=O)C(=O)O)C(C)C` [ACP NO. 3], which IC50 (HEC-1-A cells [1]; [3]) is on record?
Its IC50 is 8.78 ± 0.77 µM.

What about the IC50 (HUVEC) of the same molecule?
Its IC50 is 9.72 ± 0.84 µM.

EQQQQQQPQNRRFRE [Q7] was tested. Which IC50 (HEC-1-A cells [1]; 48 h) did it give?
Its IC50 is 130 ± 7.53 µM.

With FKGGGPYGQGVTRGQDLSGKDF [ACP NO. 1] as the molecule, how does the IC50 (HEC-1-A cells [1]; [3]) read?
Its IC50 is 27.5 ± 2.5 µM.

What about the IC50 (HUVEC) of the same molecule?
The IC50 was 29.1 ± 1.72 µM.

How did the IC50 (HEC-1-A cells [1]; [3]) turn out when GLLGVLGSVAKHVLPHVVPVIAEHL [ACP NO. 8] was run?
Its IC50 is 23.7 ± 2.19 µM.

What about the IC50 (HUVEC) of the same molecule?
Its IC50 is 26.1 ± 2.38 µM.

How did the IC50 (HEC-1-A cells [1]; HEC-1-A, MTT, 0-400 μM, 48 h (Fig. 1A), mean ± SD, read-out: fifty percent of growth inhibition concentration (IC50)) turn out when “RQPQNQRQEQFQEQR [sQ7, reference compound]” was run?
Its IC50 is 158 ± 13.9 µM.

For “nACP: non-ACP (nACP), human HSP27_36-50 (PRLPEEWSQWLGGSS; UniProt P04792 36-50, looked up, fragment)”, which “toxic effects on HEC-1-A cells” value (HEC-1-A cells [1]; MTT, 48 h, up to 400 μM) is on record?
Its value is “not obviously toxic effects”.

What about the wound closure rate (HEC-1-A cells [2]) of the same molecule?
The wound closure rate was 85%.

What about the “level of phosphorylation of AKT” value (AKT) of the same molecule?
Its value is “no obvious effect”.
